# Results: US20240228537A1, “BLOCK COPOLYPEPTIDES AND USE THEREOF” (National Cheng Kung University, priority 2023, published 2024)
# How the values were obtained:
# LL2 tumor = test: Murine syngeneic LL2 lung tumor model; assay type: in vivo; settings: LL2 tumor-bearing mice
# Protocol: Briefly, LL2 cells that had been transfected with the luciferase reporter gene were inoculated subcutaneously into C57BL/6 mice.
# LL2 cells (5×10^5) expressing a luciferase reporter were inoculated subcutaneously into the backs of C57BL/6 mice, as a lung cancer animal model. After 7 days, saline control or copolypeptides were injected intratumorally to start the beginning of the timeline (day zero). […] Tumor growth, body weight, and survival were closely monitored. Tumor volume was calculated using the following equation: (length of tumor)×(width of tumor)^2×0.45 by measuring the tumors in two perpendicular axes with a tissue caliper. Once the tumor volume reached 2,000 mm^3, the mice were sacrificed and subsequently recorded as dead. […] On day 12, mice were intraperitoneally injected with D-luciferin potassium salt (200 μL, 10 mg/mL, Thermo Fisher Scientific), followed by anesthesia with 2% isoflurane in order to perform in vivo bioluminescence imaging. An IVIS-200 Perkin Elmer system with its integrated acquisition and analysis software (Living Image V. 2.50) was performed to quantify the said signals. On day 32, an optical microscope was used to examine the number of pulmonary metastatic nodules.
# H1299 cells [1] = test: Membrane staining with 1,1′-diethyl-4,4′-carbocyanine iodide; assay type: cell-based; settings: H1299, 4 μM, 6 h
# A549 cells = test: as above; assay type: cell-based; settings: A549, 4 μM, 6 h
# caspase-3, and PARP = test: Immunoblot analysis in H1299 cells; assay type: cell-based; settings: H1299, 24 h
# Protocol: (§1) In the present disclosure, E-cadherin is one of the crucial molecules in cell-cell adhesion, participating in cancer progression.
# (§2) The immunoblot analysis was conducted by treating H1299 cells with copolypeptides (4 μM) in the presence or absence of cisplatin (5 μM) for 24 h, followed by extraction using RIPA Lysis and Extraction Buffer (Thermo Fisher Scientific) and then separation by using 8% SDS-PAGE. Upon transferring onto NC membranes (0.22 μm) blocked in 5% fat-free dry milk, the proteins were incubated with primary antibodies against E-cadherin, caspase-3, poly(ADP-ribose) polymerase (PARP), and β-actin, followed by incubation with their appropriate secondary antibodies. An Immobilon Western Chemiluminescent HRP Substrate kit (Merck) was used to form visualized protein bands and the intensities of the protein bands were quantified using the Image J software (Image Processing and Analysis in Java) by normalizing to that of β-actin.
# E-cadherin = test: Immunoblot analysis in H1299 cells; assay type: cell-based; settings: H1299, 24 h
# Protocol: as §1, §2
# [2] = Secondary conformation by circular dichroism (BeStSel fit); assay type: physicochemical; settings: CD, 0.1 mg mL^−1 in DI water, neutral condition
# Protocol: The BeStSel software (Beta Structure Selection) was used to compute the percentages of peptide chain conformation by fitting the CD spectra.
# The MALDI-TOF MS spectrum of the side-chain protected peptide was recorded in the reflection mode of a MALDI-TOF spectrometer (Bruker Autoflex III TOF/TOF). […] For CD measurements, the concentration of peptide samples in DI water was 0.1 mg mL^−1. SAXS patterns of peptide solutions were recorded on a Bruker NanoSTAR U diffractometer with controlled voltage 45 kV and current 650 μA at room temperature under 4×10^−1 torr. The critical aggregation concentration (cac) of peptides was determined by measuring the pyrene emission spectra of various peptide solutions with an integration time of 1.0 sec using a Hitachi FL-4500 fluorescence spectrophotometer.
# H1299 cells [3] = test: Cytotoxicity, CCK-8 assay; assay type: cell-based; settings: H1299, linear copolypeptides, 0 to 100 μM
# Protocol: The cytotoxicity of copolypeptides at various concentrations or in combination with cisplatin (5 μM) was evaluated by incubating with A549, BEAS-2B, and H1299 cells (5×10^3 cells/well) in 96-well plates for 24 h using 10% FBS DMEM as the medium. After adding CCK-8 reagent (Targetmol) dissolved in serum-free medium, the well plates were incubated at 37° C. for 1 h. Upon transferring the medium to fresh 96-well plates, the absorbance of each well was measured at 450 nm using a Microplate Spectrophotometer (BioTek). The percentages of viable cells were calculated by the below equation:
# Cell viability (%)=(Absorbancetest cell−Absorbanceblank)/(Absorbancecontrol cell−Absorbanceblank)×100
# [4] = tested on: H1299 (p53-deficient) cells; test: Transfection efficiency of copolypeptides/pDNA polyplexes; assay type: cell-based; settings: H1299, relative to lipofectamine 2000
# Excerpt: LysmBnCys5 copolypeptides (m=5, 10, and 15, i.e., SEQ ID NOs: 2, 5, and 3)) efficiently carried p53 gene (pcDNA3 p53 WT plasmid) into H1299 (p53-deficient) cells and enhanced chemotherapeutic treatment. […] Improved transfection efficiency was mainly attributed to optimal polyplex stability, determined by peptide charge density and rigidity. […] Moreover, treatment with both LysmBnCys5/p53 gene vector and cisplatin extended the survival rates of tumor-bearing mice.
# FIGS. 22A-22B are results showing the p53 gene transfection efficiencies of various star-shaped copolypeptides to H1299 cells.
# 5.0 μM copolypeptides or 4.0 μL lipofectamine 2000 (Thermo Fisher Scientific) were mixed with 4.0 μg of plasmid DNA (pEGFP-C, Clontech) in 1 mL serum-free DMEM and left standing for 20 min. After cell concentration reached 2×10^5 cells/well in 6-well plates, the culture medium was replaced with 1 mL copolypeptides/DNA complexes (polyplexes) and incubated for 6 h. […] Green fluorescent protein (GFP) expression of transfected cells was examined under an inverted fluorescence microscope (IX71, Olympus). Quantitative evaluation of the transfection efficiency was also conducted using a flow cytometer (BD Biosciences). […] Transfection efficiency was then calculated as the percentage of cells expressing GFP, with the fluorescence of 2×10^4 cells evaluated by flow cytometry.
compound,measurement,setting,value
N.N.[Cl][Pt][Cl] [cisplatin],body weight loss,LL2 tumor,weight loss
LLLLLCCCCC [Lys5Cys5],"membrane staining with 1,1′-diethyl-4,4′-carbocyanine iodide",H1299 cells [1],not
same,"membrane staining with 1,1′-diethyl-4,4′-carbocyanine iodide",A549 cells,not
same,caspase-3 and PARP expression,"caspase-3, and PARP","triggered caspase-3, and PARP expression significantly"
same,E-cadherin expression,E-cadherin,reduced E-cadherin expression
same,Random coil (%),[2],32.0%
same,ß-sheet/turn (%),[2],68.0%
"Lys10BnCys5: poly-L-lysine-block-poly-S-benzyl-L-cysteine, 10 and 5 residues",cell viability,H1299 cells [3],cell viability decreased with increasing concentration
"Lys15BnCys5: poly-L-lysine-block-poly-S-benzyl-L-cysteine, 15 and 5 residues",transfection efficiency,[4],almost equivalent to that using lipofectamine 2000
same,cell viability,H1299 cells [3],cell viability decreased with increasing concentration
poly-L-guanidinylated lysine [PLGL15],cell viability,H1299 cells [3],cell viability decreased with increasing concentration
"poly-L-lysine (LLLLLLLLLLLLLLL) [PLL15, poly-L-lysine, 15 residues]",cell viability,H1299 cells [3],cell viability decreased with increasing concentration
